What is called Emax is the maximal effect, on the per cent scale that the assay sets.

Molecules are shown by their SMILES.

What all share (assay type): cell-based
In one test the target is T1, M3 muscarinic receptor (Homo sapiens, UniProt P20309).
T1 construct: expressed in transfected cells; host or cells: CHO (M3-CHO)
Put plainly: Functional mobilization of intracellular calcium (FLIPR), M3-CHO cells. Particulars: for Emax: 100% efficacy = maximum response obtained with the Carbachol control; for M3 Activity: M3-CHO cells, calcium mobilization (FLIPR). In short, it runs like this: (§1)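 Calcium mobilisation read by FLIPR over 60 s (ex 488/em 540 nm) in recombinant muscarinic CHO lines loaded with calcium dye plus 1 mM probenecid. Compounds tested as agonists alone, or as inhibitors against EC80 carbachol after 15 min pre-incubation or co-addition; 0.5% DMSO; efficacy scaled to carbachol maximal response.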

For a further test, the target named is T2, M4 muscarinic receptor (Homo sapiens, UniProt P08173).
T2 construct: expressed in transfected cells; host or cells: CHO (M4-CHO)
T2 sequence (P08173 1-479): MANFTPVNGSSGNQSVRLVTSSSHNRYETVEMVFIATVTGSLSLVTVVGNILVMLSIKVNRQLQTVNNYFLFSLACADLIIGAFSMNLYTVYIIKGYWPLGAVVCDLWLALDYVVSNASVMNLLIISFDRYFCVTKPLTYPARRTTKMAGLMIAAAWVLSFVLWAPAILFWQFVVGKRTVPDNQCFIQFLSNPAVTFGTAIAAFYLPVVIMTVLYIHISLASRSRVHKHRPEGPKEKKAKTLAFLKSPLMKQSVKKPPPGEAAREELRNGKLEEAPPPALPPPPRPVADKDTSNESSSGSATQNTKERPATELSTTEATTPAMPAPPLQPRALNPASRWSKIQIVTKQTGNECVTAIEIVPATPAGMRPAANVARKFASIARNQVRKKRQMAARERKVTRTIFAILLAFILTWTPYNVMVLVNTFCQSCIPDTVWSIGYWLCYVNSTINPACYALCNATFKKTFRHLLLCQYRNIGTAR
Nature of the test: Functional mobilization of intracellular calcium (FLIPR), M4-CHO cells. Particulars: for Emax: 100% efficacy = maximum response obtained with the Carbachol control; for M4 Activity: M4-CHO cells, calcium mobilization (FLIPR). A digest of the protocol:
as §1

In a further test the target is T3, M1 muscarinic receptor (Homo sapiens, UniProt P11229).
T3 construct: expressed in transfected cells; host or cells: CHO (M1-CHO)
T3 sequence (P11229 1-460): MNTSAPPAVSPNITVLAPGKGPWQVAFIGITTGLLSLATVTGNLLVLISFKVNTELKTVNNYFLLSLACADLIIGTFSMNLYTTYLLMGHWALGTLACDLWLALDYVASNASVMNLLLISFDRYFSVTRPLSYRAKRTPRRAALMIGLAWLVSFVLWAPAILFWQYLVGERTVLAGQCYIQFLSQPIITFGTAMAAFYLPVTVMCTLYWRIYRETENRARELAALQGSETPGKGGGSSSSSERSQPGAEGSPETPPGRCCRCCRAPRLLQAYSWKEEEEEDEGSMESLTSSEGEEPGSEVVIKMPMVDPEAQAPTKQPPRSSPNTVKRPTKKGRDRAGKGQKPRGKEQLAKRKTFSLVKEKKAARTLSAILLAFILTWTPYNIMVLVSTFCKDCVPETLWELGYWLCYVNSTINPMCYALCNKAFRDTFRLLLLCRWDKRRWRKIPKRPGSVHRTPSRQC
Nature of the test: Functional mobilization of intracellular calcium (FLIPR), M1-CHO cells. Particulars: for Emax: 100% efficacy = maximum response obtained with the Carbachol control; for M1 Activity: M1-CHO cells, calcium mobilization (FLIPR). A digest of the protocol:
as §1
Background: Calcium flux is commonly read through the fluorescence of an indicator in the cells.

Another test addresses T4, M2 muscarinic receptor (Homo sapiens, UniProt P08172).
T4 construct: expressed in transfected cells; host or cells: CHO (M2-CHO)
T4 sequence (P08172 1-466): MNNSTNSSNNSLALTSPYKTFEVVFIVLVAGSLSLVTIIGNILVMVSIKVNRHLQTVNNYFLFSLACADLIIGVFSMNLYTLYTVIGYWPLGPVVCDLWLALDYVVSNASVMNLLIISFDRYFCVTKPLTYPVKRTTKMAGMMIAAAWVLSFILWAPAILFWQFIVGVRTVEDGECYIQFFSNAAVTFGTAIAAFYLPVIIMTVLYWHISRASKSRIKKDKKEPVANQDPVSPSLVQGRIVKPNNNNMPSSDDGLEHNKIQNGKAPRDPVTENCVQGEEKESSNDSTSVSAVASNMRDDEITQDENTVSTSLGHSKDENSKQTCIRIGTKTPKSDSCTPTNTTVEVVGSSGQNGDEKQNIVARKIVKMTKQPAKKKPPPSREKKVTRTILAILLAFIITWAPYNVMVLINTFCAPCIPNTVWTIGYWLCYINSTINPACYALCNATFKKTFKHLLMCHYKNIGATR
Put plainly: Functional mobilization of intracellular calcium (FLIPR), M2-CHO cells. To be noted: for Emax: 100% efficacy = maximum response obtained with the Carbachol control; for M2 Activity: M2-CHO cells, calcium mobilization (FLIPR). In short, it runs like this:
as §1

T1 sequence (P20309 whole entry): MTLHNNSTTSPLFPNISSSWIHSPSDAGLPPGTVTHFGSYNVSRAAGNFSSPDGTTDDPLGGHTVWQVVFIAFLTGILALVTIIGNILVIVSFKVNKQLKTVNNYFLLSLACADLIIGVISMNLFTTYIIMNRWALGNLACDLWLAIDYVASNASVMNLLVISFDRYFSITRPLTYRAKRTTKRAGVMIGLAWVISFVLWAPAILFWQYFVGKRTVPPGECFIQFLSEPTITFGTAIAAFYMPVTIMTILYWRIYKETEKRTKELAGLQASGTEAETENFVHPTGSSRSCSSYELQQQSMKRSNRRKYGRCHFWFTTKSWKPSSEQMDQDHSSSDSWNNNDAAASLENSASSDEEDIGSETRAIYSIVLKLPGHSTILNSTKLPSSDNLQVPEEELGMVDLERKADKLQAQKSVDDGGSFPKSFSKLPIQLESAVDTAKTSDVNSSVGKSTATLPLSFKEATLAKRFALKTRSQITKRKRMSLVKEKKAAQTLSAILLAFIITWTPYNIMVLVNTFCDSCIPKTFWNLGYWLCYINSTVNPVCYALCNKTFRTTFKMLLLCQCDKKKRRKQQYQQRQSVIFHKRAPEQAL

Take `COc1ccc(-c2ccc(C(C)(C)C#N)cc2)cc1C1CCN(C2CCOCC2)CC1` [Compound 192]: at M3 muscarinic receptor, the Emax is under 25% and the “M3 Activity” value is “+ (activity was measured to be greater than 5.0 μM)”. Moreover, at M4 muscarinic receptor, the Emax was in the range of 25 to 100% and the “M4 Activity” value was “+ (activity was measured to be greater than 5.0 μM)”. On M1 muscarinic receptor, the Emax fell in the range of 25 to 100% and the “M1 Activity” value is on record as “+ (activity was measured to be greater than 5.0 μM)”. Moreover, on M2 muscarinic receptor, the Emax is under 25% and the “M2 Activity” value was “+ (activity was measured to be greater than 5.0 μM)”.

`COc1ccc(-c2ccccc2C(N)=O)cc1C1CCN([C@H]2C[C@H]3CC[C@H]2C3)CC1` [Compound 347]: on M3 muscarinic receptor, the Emax is under 25% and the “M3 Activity” value is given as “+ (activity was measured to be greater than 5.0 μM)”. In addition, on M4 muscarinic receptor, the Emax fell in the range of 25 to 100% and the “M4 Activity” value is listed as “++ (activity was measured to be from 1.0 μM to 5.0 μM)”. For the same compound, on M1 muscarinic receptor, the Emax was under 25% and the “M1 Activity” value was “+ (activity was measured to be greater than 5.0 μM)”. Also, at M2 muscarinic receptor, the Emax was under 25% and the “M2 Activity” value is “+ (activity was measured to be greater than 5.0 μM)”.

On to `CCOC(=O)N1CCC(CN2CCC(c3cc(-c4ccc(C#N)cc4)ccc3OC)CC2)CC1` [Compound 345], for which, at M3 muscarinic receptor, the Emax was under 25% and the “M3 Activity” value is reported as “+ (activity was measured to be greater than 5.0 μM)”. On M4 muscarinic receptor, the Emax is 25 to 100% and the “M4 Activity” value is recorded as “+++ (activity was measured to be less than 1.0 μM)”. In addition, on M1 muscarinic receptor, the Emax lay within 25 to 100% and the “M1 Activity” value is given as “++ (activity was measured to be from 1.0 μM to 5.0 μM)”. Moreover, at M2 muscarinic receptor, the Emax was under 25% and the “M2 Activity” value is given as “+ (activity was measured to be greater than 5.0 μM)”.

Consider `COc1ccccc1C1CCN(C2CC(C)CC(C)C2)CC1` (stereo not shown) [Compound 34], for which, at M3 muscarinic receptor, the Emax was under 25% and the “M3 Activity” value is recorded as “+ (activity was measured to be greater than 5.0 μM)”. On M4 muscarinic receptor, the Emax is under 25% and the “M4 Activity” value is listed as “+ (activity was measured to be greater than 5.0 μM)”. For the same compound, at M1 muscarinic receptor, the Emax was under 25% and the “M1 Activity” value is listed as “+ (activity was measured to be greater than 5.0 μM)”. Also, at M2 muscarinic receptor, the Emax is under 25% and the “M2 Activity” value is given as “+ (activity was measured to be greater than 5.0 μM)”.

Turning to `CCOC(=O)N1CCC(CN2CCC(c3cc(-c4ccc(S(C)(=O)=O)cc4)ccc3OC)CC2)CC1` [Compound 146], at M3 muscarinic receptor, the maximal response (Emax) is under 25% and the “M3 Activity” value is listed as “+ (activity was measured to be greater than 5.0 μM)”. Moreover, on M4 muscarinic receptor, the Emax was in the range of 25 to 100% and the “M4 Activity” value is recorded as “+++ (activity was measured to be less than 1.0 μM)”. In addition, at M1 muscarinic receptor, the Emax lay within 25 to 100% and the “M1 Activity” value is listed as “+++ (activity was measured to be less than 1.0 μM)”. For the same compound, on M2 muscarinic receptor, the Emax is under 25% and the “M2 Activity” value is given as “+ (activity was measured to be greater than 5.0 μM)”.

In the case of `CCOC(=O)N1CCC(CN2CCC(c3cc(-c4ccc(C(C)(C)C#N)cc4)ccc3OC)CC2)CC1` [Compound 272], at M3 muscarinic receptor, the Emax is under 25% and the “M3 Activity” value is on record as “+ (activity was measured to be greater than 5.0 μM)”. On M4 muscarinic receptor, the Emax is 25 to 100% and the “M4 Activity” value is “+++ (activity was measured to be less than 1.0 μM)”. Further, at M1 muscarinic receptor, the Emax lay within 25 to 100% and the “M1 Activity” value was “+++ (activity was measured to be less than 1.0 μM)”. For the same compound, on M2 muscarinic receptor, the Emax is under 25% and the “M2 Activity” value is listed as “+ (activity was measured to be greater than 5.0 μM)”.

For the compound `COc1ccc(-c2ccccc2C2CCN([C@H]3C[C@H]4CC[C@H]3C4)CC2)cc1` [Compound 241], at M3 muscarinic receptor, the Emax was under 25% and the “M3 Activity” value was “+ (activity was measured to be greater than 5.0 μM)”. Moreover, at M4 muscarinic receptor, the Emax was 25 to 100% and the “M4 Activity” value is on record as “++ (activity was measured to be from 1.0 μM to 5.0 μM)”. Moreover, on M1 muscarinic receptor, the Emax is 25 to 100% and the “M1 Activity” value is listed as “+ (activity was measured to be greater than 5.0 μM)”. Further, on M2 muscarinic receptor, the Emax is under 25% and the “M2 Activity” value was “+ (activity was measured to be greater than 5.0 μM)”.

As to `COc1ccc(C(C)(C)C)cc1C1CCN([C@@H]2C[C@@H]3CC[C@H]2C3)CC1` [Compound 325, 1-((1S,2R,4R)-bicyclo[2.2.1]heptan-2-yl)-4-(5-tert-butyl-2-methoxy-phenyl) piperidine], on M3 muscarinic receptor, the Emax lay within 25 to 100% and the “M3 Activity” value is given as “+ (activity was measured to be greater than 5.0 μM)”. On M4 muscarinic receptor, the Emax is 25 to 100% and the “M4 Activity” value was “++ (activity was measured to be from 1.0 μM to 5.0 μM)”. At M1 muscarinic receptor, the maximal effect (Emax) was 25 to 100% and the “M1 Activity” value was “++ (activity was measured to be from 1.0 μM to 5.0 μM)”. Moreover, on M2 muscarinic receptor, the Emax lay in the range of 25 to 100% and the “M2 Activity” value was “+ (activity was measured to be greater than 5.0 μM)”.

Consider `COc1ccc(-c2cccc(F)c2F)cc1C1CCN([C@@H]2C[C@H]3CC[C@H]2C3)CC1` [Compound 318], for which, on M3 muscarinic receptor, the Emax is under 25% and the “M3 Activity” value is reported as “+ (activity was measured to be greater than 5.0 μM)”. For the same compound, on M4 muscarinic receptor, the Emax was in the range of 25 to 100% and the “M4 Activity” value is “+ (activity was measured to be greater than 5.0 μM)”. On M1 muscarinic receptor, the Emax is under 25% and the “M1 Activity” value is on record as “+ (activity was measured to be greater than 5.0 μM)”. In addition, on M2 muscarinic receptor, the maximal response (Emax) was under 25% and the “M2 Activity” value was “+ (activity was measured to be greater than 5.0 μM)”.

For `COc1ccc(Br)cc1C1CCN([C@@H]2C[C@@H]3CC[C@H]2C3)CC1` [Compound 187, 1-((1S,2R,4R)-bicyclo[2.2.1]heptan-2-yl)-4-(5-bromo-2-methoxyphenyl)piperidine], on M3 muscarinic receptor, the Emax was under 25% and the “M3 Activity” value is given as “+ (activity was measured to be greater than 5.0 μM)”. For the same compound, on M4 muscarinic receptor, the Emax was in the range of 25 to 100% and the “M4 Activity” value is given as “+++ (activity was measured to be less than 1.0 μM)”. Further, at M1 muscarinic receptor, the maximal response (Emax) fell in the range of 25 to 100% and the “M1 Activity” value is on record as “+++ (activity was measured to be less than 1.0 μM)”. Also, on M2 muscarinic receptor, the Emax was 25 to 100% and the “M2 Activity” value is given as “++ (activity was measured to be from 1.0 μM to 5.0 μM)”.

For the compound `CCOC(=O)N1C2CCC1CC(N1CCC(F)(c3cc(Cl)ccc3OC)CC1)C2` (stereo not shown) [Compound 219, 4-(5-chloro-2-methoxyphenyl)-4-fluoropiperidine tropane ethyl carbamate], at M3 muscarinic receptor, the Emax was under 25% and the “M3 Activity” value was “+ (activity was measured to be greater than 5.0 μM)”. For the same compound, at M4 muscarinic receptor, the Emax is 25 to 100% and the “M4 Activity” value was “+++ (activity was measured to be less than 1.0 μM)”. In addition, at M1 muscarinic receptor, the Emax fell in the range of 25 to 100% and the “M1 Activity” value is “+++ (activity was measured to be less than 1.0 μM)”. Further, at M2 muscarinic receptor, the Emax is under 25% and the “M2 Activity” value is recorded as “+ (activity was measured to be greater than 5.0 μM)”.
